In article PMC8216263 (Pharmaceutical Biology, 2021):

Key:
MDR1 = target: T1, MDR1 (Homo sapiens, UniProt P08183); assay: Inhibition of MDR1-mediated rhodamine 123 efflux in MDCK-MDR1 cells; assay type: cell-based; conditions: for inhibitory effect on efflux of MDR1-mediated rhodamine 123: GA 50–5000 μg/L, PCA 10–1000 μg/L
T1 construct: host or cells: MDCK
Source text: The human multidrug resistance protein (MDR)1-transfected Madin–Darby Canine Kidney (MDCK) cells, human breast cancer resistance protein (BCRP)-transfected MDCK cells, human organic anion transporter (OAT)1-transfected MDCK cells, OAT3-transfected second portion of proximal tubule (S2) cells, human organic cation transporter (OCT)2-transfected S2 cells, human organic anion transporting polypeptide (OATP)1B1-transfected human embryonic kidney 293 (HEK293) cells and their MOCK cells were kindly provided by Japan Fuji Biomedical Co., Ltd. (Osaka, Japan). Cells were cultured in DMEM supplemented with 10% FBS, 100 units/mL penicillin and 100 […]. All cells were incubated in a humidified atmosphere of 95% air and 5% CO2 at 37 °C. A solution of 0.25% trypsin-EDTA was used to detach the cells from flasks. Cell culture flasks, 24-well cell culture plates, and transwell polycarbonate inserts (12 mm diameter, 0.4 μm pore size) were purchased from Corning Co-star Corp. (Bedford, MA).
Inhibitory effects of GA and PCA on efflux transporters MDR1 and BCRP were investigated with the fluorogenic substrates rhodamine 123 (10 µM) and lucifer yellow (10 µM), respectively. The positive control inhibitors of MDR1 and BCRP were verapamil (10 µM) and cyclosporine (20 µM), respectively. The efflux experiments were adapted from previously reported methods with minor modifications (Reznicek et al. [2017]). Briefly, MDCK-MDR1, MDCK-BCRP and MDCK-mock cells were trypsinized and uniformly suspended in the designated volume of HBSS to provide a density of 4.0 × 10^5 cells/mL. For 0.5 mL of cell suspension and 1.5 mL of HBSS buffer medium were added in the apical and basolateral compartments of 12-well Transwell plates. After cultivation for 7 d, cells were washed twice and equilibrated for 30 min at 37 °C with the pre-warmed HBSS buffer. The integrity of cell monolayers was verified by the determination of the value of transepithelial electrical resistance (TEER) using a Millipore Millicell-ERS system (Millipore Corporation, Bedford, MA) (200–300 Ω × cm^2). An aliquot of 1.5 mL transport buffer containing probe substrates was added in the basolateral compartment to initiate the efflux in the presence or absence of GA (50, 150, 500, 1500 and 5000 μg/L), PCA (10, 30, 100, 300 and 1000 μg/L) or positive inhibitors at 37 °C. An aliquot of 0.5 mL empty transport buffer was placed in the apical compartment. After 2 h of co-incubation, 100 μL of HBSS in the apical compartment was transferred to 96-well plates. Fluorescence was measured at 485 nm (excitation) and 546 nm (emission) for rhodamine 123, and 425 nm (excitation) and 528 nm (emission) for Lucifer yellow. The final concentration of DMSO in the assay was less than 0.1%. All experiments were performed in triplicate.

[1] = Stability of GA and PCA in quality control samples (biological matrix); assay type: physicochemical, human; conditions: for Long-term Stability: 3 months at −80 °C; for Post-preparative Stability: 24 h at 4 °C, n = 3; for Bench-top Stability: 24 h at 25 °C
Experimental: The analytical method’s validation was conducted according to the FDA’s Bio-analytical Method Validation guidance (USFDA [2018]). Blank samples were obtained from six subjects for selectivity. The calibration curves were assessed by plotting the peak response ratio against the nominal concentrations of GA (1.00, 2.00, 10.0, 40.0, 100, 200, 320 and 400 μg/L) and PCA (0.50, 1.00, 5.00, 20.0, 50.0, 100, 160 and 200 μg/L). The low, medium and high QC concentrations were 3.00, 60.0 and 300 μg/L and 1.50, 30.0 and 150 μg/L for GA and PCA, respectively. Intra- and inter-day accuracy and precision were measured using six replicates of QCs in three separate batches. QCs’ acceptance criteria were ± 15% SD of nominal values, and the precision was ± 15% RSD, except for LLOQ ± 20% SD. The matrix effect and recovery were investigated using six lots of blank matrix from individual sources. Stability was assessed by spiking low and high QCs in blank samples using four conditions: for post-preparative stability (24 h at 4 °C), bench-top stability (24 h at 25 °C), long-term stability (3 months at −80 °C) and freeze-thaw stability (for three cycles).

[2] = high QC (GA 300.0, PCA 150.0 μg/L)
[3] = low QC (GA 3.00, PCA 1.50 μg/L)

T1 sequence (P08183 whole entry): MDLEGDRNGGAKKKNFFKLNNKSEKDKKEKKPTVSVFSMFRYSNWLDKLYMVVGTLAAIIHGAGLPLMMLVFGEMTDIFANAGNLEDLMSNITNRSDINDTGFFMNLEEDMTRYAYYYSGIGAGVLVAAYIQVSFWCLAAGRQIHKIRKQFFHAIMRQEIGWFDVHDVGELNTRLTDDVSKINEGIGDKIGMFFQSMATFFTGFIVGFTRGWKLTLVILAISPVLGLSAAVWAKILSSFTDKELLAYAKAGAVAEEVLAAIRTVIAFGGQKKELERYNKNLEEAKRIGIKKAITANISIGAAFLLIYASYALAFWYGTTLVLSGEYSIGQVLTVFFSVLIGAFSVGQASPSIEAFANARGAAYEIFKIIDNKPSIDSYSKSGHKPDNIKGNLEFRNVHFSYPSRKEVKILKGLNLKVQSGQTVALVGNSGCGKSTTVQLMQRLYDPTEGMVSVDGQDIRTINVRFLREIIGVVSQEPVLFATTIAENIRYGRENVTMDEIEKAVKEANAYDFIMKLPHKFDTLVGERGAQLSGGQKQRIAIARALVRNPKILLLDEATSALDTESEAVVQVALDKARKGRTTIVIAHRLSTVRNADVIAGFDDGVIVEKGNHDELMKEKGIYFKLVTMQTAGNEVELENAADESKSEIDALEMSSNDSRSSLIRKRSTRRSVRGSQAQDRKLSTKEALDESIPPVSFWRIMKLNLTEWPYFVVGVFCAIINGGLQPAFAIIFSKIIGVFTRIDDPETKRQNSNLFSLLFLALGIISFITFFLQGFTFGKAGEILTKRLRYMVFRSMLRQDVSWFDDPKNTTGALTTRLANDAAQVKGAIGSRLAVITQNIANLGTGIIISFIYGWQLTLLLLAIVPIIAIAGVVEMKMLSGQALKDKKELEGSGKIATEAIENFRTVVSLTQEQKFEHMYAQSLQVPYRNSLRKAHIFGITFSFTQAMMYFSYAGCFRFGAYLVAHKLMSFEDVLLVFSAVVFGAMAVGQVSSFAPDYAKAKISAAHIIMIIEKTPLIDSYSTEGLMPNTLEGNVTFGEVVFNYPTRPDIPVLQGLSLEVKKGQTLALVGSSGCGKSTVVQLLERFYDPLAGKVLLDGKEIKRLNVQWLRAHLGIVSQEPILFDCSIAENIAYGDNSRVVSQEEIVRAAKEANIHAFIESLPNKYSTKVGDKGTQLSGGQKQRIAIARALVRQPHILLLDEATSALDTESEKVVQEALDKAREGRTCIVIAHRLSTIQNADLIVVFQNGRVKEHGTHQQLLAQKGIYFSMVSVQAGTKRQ

Row | SMILES | inhibitory effect on efflux of MDR1-mediated rhodamine 123 (MDR1) | efflux of rhodamine 123 compared with the control (MDR1; relatively high concentrations) | Long-term Stability [1, 2] [%] | Long-term Stability [1, 3] [%] | Post-preparative Stability [1, 2] [%] | Post-preparative Stability [1, 3] [%] | Bench-top Stability [1, 2] [%] | Bench-top Stability [1, 3] [%] | Three freeze-thaw cycles Stability [1, 2] [%] | Three freeze-thaw cycles Stability [1, 3] [%] | activity at 2 h, 6.5 µM (MDR1; human, probe rhodamine 123 (10 µM), MDCK-MDR1 cells, PCA 1000 μg/L (6.5 µM), read-out: efflux of rhodamine 123, % of control) [%]
1 | O=C(O)c1cc(O)c(O)c(O)c1 [GA, gallic acid] | no significant inhibitory effect | significant increase | 93.68 | 99.70 | 94.37 | 88.48 | 94.81 | 98.11 | 93.17 | 85.89 | –
2 | O=C(O)c1ccc(O)c(O)c1 [PCA, protocatechuic acid] | no significant inhibitory effect | – | 93.67 | 99.04 | 96.93 | 90.60 | 95.44 | 97.69 | 94.22 | 87.22 | ~190
